Reference: patent publication US8637237B2, “Methods, compositions, and systems for the identification of species-specific or developmental stage-specific insecticides” (The University of North Carolina at Greensboro, priority 2003, dated 2014)

Target: T1, FXR (Rattus norvegicus, UniProt Q62735)
T1 sequence (Q62735 1-469): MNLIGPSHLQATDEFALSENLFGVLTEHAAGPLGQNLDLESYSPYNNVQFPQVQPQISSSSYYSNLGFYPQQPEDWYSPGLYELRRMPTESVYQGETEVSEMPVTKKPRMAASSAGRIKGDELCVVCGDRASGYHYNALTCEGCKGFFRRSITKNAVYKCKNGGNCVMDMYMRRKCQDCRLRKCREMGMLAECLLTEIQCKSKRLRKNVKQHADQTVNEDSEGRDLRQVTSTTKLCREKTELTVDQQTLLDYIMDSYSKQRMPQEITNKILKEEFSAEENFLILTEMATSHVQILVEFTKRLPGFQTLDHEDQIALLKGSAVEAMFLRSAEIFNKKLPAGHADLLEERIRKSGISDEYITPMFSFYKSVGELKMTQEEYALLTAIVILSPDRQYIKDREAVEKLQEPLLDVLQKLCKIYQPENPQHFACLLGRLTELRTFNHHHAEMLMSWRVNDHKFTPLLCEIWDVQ
T1 sequence (P28700 1-467 partner): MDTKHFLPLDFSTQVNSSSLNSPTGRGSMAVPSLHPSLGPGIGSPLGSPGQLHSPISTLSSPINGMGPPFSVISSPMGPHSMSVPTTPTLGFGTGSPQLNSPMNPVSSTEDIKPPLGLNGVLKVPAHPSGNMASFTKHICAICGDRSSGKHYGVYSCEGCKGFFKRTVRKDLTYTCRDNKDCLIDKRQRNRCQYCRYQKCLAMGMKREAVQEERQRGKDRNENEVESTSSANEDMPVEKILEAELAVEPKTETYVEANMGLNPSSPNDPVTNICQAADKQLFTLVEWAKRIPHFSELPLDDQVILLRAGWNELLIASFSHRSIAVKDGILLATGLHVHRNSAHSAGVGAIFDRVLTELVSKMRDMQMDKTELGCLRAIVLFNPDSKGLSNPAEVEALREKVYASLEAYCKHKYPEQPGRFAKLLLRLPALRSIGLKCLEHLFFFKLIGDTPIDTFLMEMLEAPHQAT
Assay: cell-based
Protocol: These experiments employed a mammalian cell culture system using Chinese hamster ovary cells (CHO) to evaluate the transcriptional function of Drosophila melanogaster EcR and USP using methods described previously (U.S. Patent Application Publication No: 2005/0049230; Henrich et al, 2003). Cells were seeded in 6-well polypropylene culture plates (Falcon) with 10^5 cells per well on the day prior to transfection. Transfection was subsequently performed using either calcium phosphate (Kitareewan et al., 1996, Mol. Biol. Cell, 7:1153-1196) or a GenePorter reagent (Gene Therapy Systems, Inc; San Diego, Calif.) following manufacturer's protocols. Each well received 1.25 μg of (EcRE)5-ΔMTV-CAT (five copies of the hsp27 EcRE inserted into an mouse mammary tumor virus (MTV) promoter upstream of the chloramphenicol acetyltransferase (CAT) gene) or (EcRE)5-ΔMTV-LUC (the same promoter attached to firefly luciferase), 1.25 μg of pCH111 (SV40 early promoter linked to the β-galactosidase gene) to normalize CAT activity, and 0.25 μg of each expression plasmid (EcR, FXR, RXR, USP) that was tested. The cells were incubated with plasmid DNA for seven hours and then washed with 1×PBS. Muristerone A (murA; Alexis Biochemicals) or 20-hydroxyecdysone (20E; Sigma) dissolved in ethanol to a concentration of 10 mM was diluted as necessary to the final assay concentration (FAC) in 2 ml of fresh incubation medium that was then applied to the cells. Similarly, JHIII (Sigma) was dissolved in dimethyl sulfoxide (DMSO) to a concentration of […] and diluted into the incubation medium to its final assay concentration (20, 40, 80, 160 μM). […] A corresponding volume of ethanol and DMSO were added to control cells for all experiments. For all experiments, the cells were allowed to incubate with the medium for 24 hours before collection and cell lysates were prepared by described methods (Kitareewan et al., 1996). Both β-galactosidase and CAT reporter activity were measured based on previously used methods (Kitareewan et al, 1996). Luciferase assays using luciferrin followed the specifications of the manufacturer.
Transcriptional activity, measured as ^14C-chloramphenicol counts (for measuring CAT activity) or relative luciferase activity (RLU) was quantified for each cell lysate. The counts were then normalized by adjusting for differences in β-galactosidase activity, since β-galactosidase expression is controlled by a constitutive promoter and provides an estimate of cell mass. Data were normalized as fold-induction based on differences in reporter gene activity between hormonally treated and control cells.
In these experiments, candidate juvenoids were tested for their ability to activate FXR mediated transcription by transfecting Chinese hamster ovary (CHO) cells using the FXR plasmid, mouse RXRα, and the ΔMTV-(EcRE)5-CAT reporter as described herein. An RXR-dependent CRBPII-CAT reporter plasmid was employed in parallel assays to discern activators specific for this receptor.

Structure (SMILES): CC(C)(O)/C=C/C(=O)[C@](C)(O)[C@H]1[C@H](O)C[C@@]2(C)[C@@H]3CC=C4[C@@H](C=C(O)C(=O)C4(C)C)[C@]3(C)C(=O)C[C@]12C [cucurbitacin I]
- IC50 (read-out: IC50, inhibition of farnesol-induced FXR activity, data not shown): ~50 nM

Structure (SMILES): COc1cc(/C=C/C(=O)CC(=O)/C=C/c2ccc(O)c(OC)c2)ccc1O [curcumin]
- FXR-dependent activity, induction (dose not stated): ineffective

Structure (SMILES): CCCC(=O)Nc1ncnc2c1ncn2[C@@H]1O[C@@H]2COP(=O)(O)O[C@H]2[C@H]1OC(=O)CCC [dibutyryl cAMP]
- FXR-dependent activity, induction (1 mM): 4 fold

Structure (SMILES): C[C@H]([C@H](O)CCC(C)(C)O)[C@H]1CC[C@@]2(O)C3=CC(=O)[C@@H]4C[C@@H](O)[C@@H](O)C[C@]4(C)[C@H]3CC[C@]12C [ecdysone]
- FXR-dependent activity, induction (dose not stated): unresponsive

Structure (SMILES): C=CC(C)(O)CCCC/C=C(\C)CC(C)=O (stereo not shown) [echinolone]
- FXR-dependent activity, maximal induction (maximal (highest non-cytotoxic) dose): 7 fold

Structure (SMILES): CC12CCC(C1)C(C)(C)C2=O (stereo not shown) [fenchone]
- FXR-dependent activity, induction (0.5 mM): inactive

Structure (SMILES): CC12CCC(C1)C(C)(C)C2O (stereo not shown) [fenchyl alcohol]
- FXR-dependent activity, induction (0.5 mM): 5 fold

Structure (SMILES): N#Cc1nn(-c2c(Cl)cc(C(F)(F)F)cc2Cl)c(N)c1[S+]([O-])C(F)(F)F (stereo not shown) [fipronil]
- FXR-dependent activity, induction (25 μM): 20 fold

Structure (SMILES): O=c1c(-c2ccc(O)cc2)coc2cc(O)cc(O)c12 [genistein]
- FXR-dependent CAT activity, induction (50 μM): unresponsive

Structure (SMILES): O=c1c(O)c(-c2ccc(O)c(O)c2)oc2c(O)c(O)cc(O)c12 [gossypetin]
- FXR-dependent CAT activity, induction (50 μM): unresponsive

Structure (SMILES): O=c1[nH]cnc2nc[nH]c12 [hypoxanthine]
- FXR-dependent activity, induction (dose not stated): ineffective

Structure (SMILES): O=[N+]([O-])NC1=NCCN1Cc1ccc(Cl)nc1 [imidacloprid]
- FXR-dependent activity, induction (dose not stated): unaffected

Structure (SMILES): COP(=S)(OC)SCN1C(=O)c2ccccc2C1=O [imidan]
- FXR-dependent activity, induction (dose not stated): inactive

Structure (SMILES): CC1=C[C@]23C(=O)[C@@H](C=C(COC(=O)c4ccccc4)[C@@H](O)[C@]2(O)[C@H]1OC(=O)c1ccccc1)[C@H]1[C@@H](C[C@H]3C)C1(C)C [ingenol-3,20-dibenzoate]
- FXR-dependent activity, induction (10 μM): 5 fold
- FXR ACTIVITY (fold-induction) (dose 10 μM): 5 fold-induction

Structure (SMILES): CC1=C[C@]23C(=O)[C@@H](C=C(CO)[C@@H](O)[C@]2(O)[C@H]1O)[C@H]1[C@@H](C[C@H]3C)C1(C)C [ingenol]
- FXR-dependent activity, induction (dose not stated): inactive

Structure (SMILES): CC/C=C\C[C@H]1C(=O)CC[C@@H]1CC(=O)O [jasmonic acid]
- FXR-dependent activity, induction (1 mM): no effect

Structure (SMILES): COC(=O)C1=CC[C@H]([C@H](C)CC(=O)CC(C)C)CC1 [juvabione]
- RXR mediated transcription, increase (plant-derived JH agonists examined as FXR effectors): 3 fold

Structure (SMILES): C[C@@]12C=Cc3occc3[C@H]1CC[C@@]13C[C@@H](CC[C@H]12)[C@@](O)(CO)C3 [kahweol]
- FXR ACTIVITY (fold-induction) (dose 20 μM, 1 = no increase over vehicle): 10 fold-induction

Structure (SMILES): O=C1C2(Cl)C3(Cl)C4(Cl)C(Cl)(Cl)C5(Cl)C3(Cl)C1(Cl)C5(Cl)C24Cl (stereo not shown) [kepone]
- FXR-dependent CAT activity, induction (5 μM): 12 fold

Structure (SMILES): C=C(C)C1CCC2(C)OC2C1 (stereo not shown) [limonene oxide]
- FXR-dependent activity, induction (400 μM): inactive

Structure (SMILES): Cl[C@H]1[C@H](Cl)[C@@H](Cl)[C@@H](Cl)[C@H](Cl)[C@H]1Cl [lindane]
- FXR-dependent CAT activity, induction (5 μM): 5 fold

Structure (SMILES): CC1CCC(C(C)C)C(O)C1 (stereo not shown) [menthol]
- FXR-dependent activity, induction (0.5 mM): inactive

Structure (SMILES): CC/C=C\CC1C(=O)CCC1CC(=O)OC (stereo not shown) [methyl jasmonate]
- FXR-dependent activity, induction (1 mM): 17 fold
- FXR ACTIVITY (fold-induction) (dose 1000 μM): 18 fold-induction

Structure (SMILES): C=C(C)[C@@]12O[C@@]3(c4ccccc4)O[C@@H]1[C@@H]1[C@@H]4O[C@]4(CO)[C@@H](O)[C@]4(O)C(=O)C(C)=C[C@H]4[C@@]1(O3)[C@H](C)[C@H]2OC(=O)/C=C/C=C/c1ccccc1 [mezerein]
- FXR-dependent activity, induction (10 μM): 3 fold

Structure (SMILES): Clc1ccc(C(c2ccc(Cl)cc2)C(Cl)(Cl)Cl)cc1 [p,p-DDT]
- FXR-dependent CAT activity, induction (5 μM): not

Structure (SMILES): C=C(C)[C@@H]1CC=C(CO)CC1 [perillyl alchol, perillyl alcohol]
- FXR ACTIVITY (fold-induction) (dose 300 μM, 1 = no increase over vehicle): 4 fold-induction
- FXR-dependent activity, induction (dose not stated): 4 fold

Structure (SMILES): OCCc1ccccc1 [phenethyl alcohol]
- FXR-dependent activity, induction (400 μM): inert

Structure (SMILES): CC(C)=CC1C(C(=O)OCc2cccc(Oc3ccccc3)c2)C1(C)C (stereo not shown) [phenothrin]
- FXR-dependent activity, induction (25 μM): 8 fold
